# Read-outs that look alike come from different tables or passages of the source.
# How the values were obtained:
# [1] = system: AAD1 (v3)-transformed T1 Arabidopsis; experiment: T1 Arabidopsis response to postemergence herbicide (2,4-D, dichlorprop, haloxyfop, fluroxypyr), % visual injury 2 WAT: AAD1 (v3) transformants; assay type: in vivo, Arabidopsis thaliana; details: for % Injury Ave / % Injury Range / % Injury 20-40% / % Injury <20% / % Injury >40% / individuals with 20-40% injury / individuals with <20% injury / individuals with >40% injury: 2 WAT; for resistance/tolerance in AAD1 (v3)-transformed T1 Arabidopsis: haloxyfop 400-1,600 g ae/ha, fluroxypyr; for % Injury 20-40% / % Injury <20% / % Injury >40%: number of individuals
# Description: Freshly harvested T1 seed (transformed with native [AAD1 (v2)] or plant optimized [AAD1 (v3)] gene) was allowed to dry for 7 days at room temperature. T1 seed was sown in 26.5×51-cm germination trays (T.O. Plastics Inc., Clearwater, Minn.), each receiving a 200 mg aliquots of stratified T1 seed (˜10,000 seed) that had previously been suspended in 40 ml of 0.1% agarose solution and stored at 4° C. for 2 days to complete dormancy requirements and ensure synchronous seed germination.
# Sunshine Mix LP5 (Sun Gro Horticulture Inc., Bellevue, Wash.) was covered with fine vermiculite and subirrigated with Hoagland's solution until wet, then allowed to gravity drain. Each 40 ml aliquot of stratified seed was sown evenly onto the vermiculite with a pipette and covered with humidity domes (KORD Products, Bramalea, Ontario, Canada) for 4-5 days. Domes were removed 1 day prior to initial transformant selection using glufosinate postemergence spray (selecting for the co-transformed PAT gene).
# Five to six days after planting (DAP) and again 10 DAP, T1 plants (cotyledon and 2-4-1f stage, respectively) were sprayed with a 0.2% solution of Liberty herbicide (200 g ai/L glufosinate, Bayer Crop Sciences, Kansas City, Mo.) at a spray volume of 10 ml/tray (703 L/ha) using a DeVilbiss compressed air spray tip to deliver an effective rate of 280 g ai/ha glufosinate per application. Survivors (plants actively growing) were identified 5-7 days after the final spraying and transplanted individually into 3-inch pots prepared with potting media (Metro Mix 360). Transplanted plants were covered with humidity domes for 3-4 days and placed in a 22° C. growth chamber as before. Domes were subsequently removed and plants moved to the greenhouse (22+5° C., 50+30% RH, 14 h light:10 dark, minimum 500 μE/m^2s^1 natural+supplemental light) at least 1 day prior to testing for the ability of AAD1 (v3) (plant optimized gene) or AAD1 (v2) (native microbial gene) to provide phenoxy auxin herbicide resistance.
# Random individual T1 plants selected for glufosinate resistance above were confirmed for expression of the PAT protein using a PAT ELISA kit (Part no. 7000045, Strategic Diagnostics, Inc., Newark, Del.) to non-destructively confirm fidelity of selection process (manufacturer's protocol). Plants were then randomly assigned to various rates of phenoxy herbicides (dichlorprop or 2,4-D). […] Elevated rates were applied in subsequent trials (50, 200, 800, or 3200 g ae/ha).
# All auxin herbicide applications were made using the DeVilbiss sprayer as described above to apply 703 L/ha spray volume (0.4 ml solution/3-inch pot) or applied by track sprayer in a 187 L/ha spray volume. […] Dichlorprop used was technical grade (Sigma, St. Louis, Mo.) dissolved in DMSO and diluted in water (<1% DMSO final concentration). As herbicide rates increased beyond 800 g ae/ha, the pH of the spray solution became exceedingly acidic, burning the leaves of young, tender Arabidopsis plants and complicating evaluation of the primary effects of the herbicides. It became standard practice to apply these high rates of phenoxy herbicides in 200 mM Tris buffer (pH 9.0) to a final pH of ˜7-8.
# Although Arabidopsis, being a dicot, is not an optimal system for testing ACCase-inhibiting AOPP grass herbicides, AAD1 (v3)-transformed T1 plants were subjected to elevated rates (400-1600 g ae/ha) of RS-haloxyfop acid (internally synthesized) that do cause growth abnormalities and death of wildtype Arabidopsis using the DeVilbiss sprayer as described above. Injury ratings were taken 7 and 14 days after treatment. Likewise, T1 individuals were treated with the pyridyloxyacetate auxin herbicide, fluroxypyr.
# Table 16. […] Response is presented in terms of % visual injury 2 WAT. […] Since each T1 is an independent transformation event, one can expect significant variation of individual T1 responses within a given rate. An arithmetic mean and standard deviation is presented for each treatment. […]
# [2] = system: Arabidopsis thaliana var. Columbia; experiment: Arabidopsis plate test bioassay for herbicide degradation; assay type: in vivo; details: for IC50: 168 h; for GR50 ratio: enzyme-expressing lysate vs blank vector, ≥ 2 = threshold for activity loss; for herbicidal activity after AAD1 (v1) treatment, Arabidopsis plate assay: unpurified recombinant AAD1 (v1) extract
# [3] = Escherichia coli, in Arabidopsis thaliana, cell lysate of E. coli pET vector without gene insert, read-out: GR50, Chemical + Blank Vector
# [4] = Arabidopsis thaliana, read-out: GR50, Chemical + AAD1 v1
# [5] = Rebuilt AAD1 (v3) gene, 50 g ae/ha
# [6] = Rebuilt AAD1 (v3) gene, 200 g ae/ha
# [7] = Rebuilt AAD1 (v3) gene, 800 g ae/ha
compound,measurement,setting,value
CC(Oc1ccc(Oc2ncc(C(F)(F)F)cc2Cl)cc1)C(=O)O (stereo not shown) [haloxyfop],% Injury Ave,"[1]; 100 g ae/ha, AAD1 v3",0.0%
same,% Injury Range,"[1]; 100 g ae/ha, AAD1 v3",0%
same,% Injury Ave,"[1]; 200 g ae/ha, AAD1 v3",0.0%
same,% Injury Range,"[1]; 200 g ae/ha, AAD1 v3",0%
same,% Injury Ave,"[1]; 400 g ae/ha, AAD1 v3",6.3%
same,% Injury Range,"[1]; 400 g ae/ha, AAD1 v3",0-20%
same,% Injury Ave,"[1]; 800 g ae/ha, AAD1 v3",46.3%
same,% Injury Range,"[1]; 800 g ae/ha, AAD1 v3",0-85%
same,% Injury Ave,"[1]; 1600 g ae/ha, AAD1 v3",65.0%
same,% Injury Range,"[1]; 1600 g ae/ha, AAD1 v3",0-100%
same,resistance/tolerance in AAD1 (v3)-transformed T1 Arabidopsis,[1],increased tolerance
same,% Injury 20-40%,"[1]; 100 g ae/ha, AAD1 v3",0
same,% Injury <20%,"[1]; 100 g ae/ha, AAD1 v3",4
same,% Injury >40%,"[1]; 100 g ae/ha, AAD1 v3",0
same,% Injury 20-40%,"[1]; 200 g ae/ha, AAD1 v3",0
same,% Injury <20%,"[1]; 200 g ae/ha, AAD1 v3",4
same,% Injury >40%,"[1]; 200 g ae/ha, AAD1 v3",0
same,% Injury 20-40%,"[1]; 400 g ae/ha, AAD1 v3",1
same,% Injury <20%,"[1]; 400 g ae/ha, AAD1 v3",3
same,% Injury >40%,"[1]; 400 g ae/ha, AAD1 v3",0
same,% Injury 20-40%,"[1]; 800 g ae/ha, AAD1 v3",1
same,% Injury <20%,"[1]; 800 g ae/ha, AAD1 v3",1
same,% Injury >40%,"[1]; 800 g ae/ha, AAD1 v3",2
same,% Injury 20-40%,"[1]; 1600 g ae/ha, AAD1 v3",0
same,% Injury <20%,"[1]; 1600 g ae/ha, AAD1 v3",1
same,% Injury >40%,"[1]; 1600 g ae/ha, AAD1 v3",3
"CC(Oc1ccc(Cl)cc1Cl)C(=O)O (racemic) [(R,S)-dichlorprop, 2,4-dichlorophenoxypropionic acid]",IC50,"[2]; Arabidopsis thaliana, AAD1 (v1)-expressing lysate, nominal concentration, read-out: GR50, Chemical + AAD1 v1",1000 nM
same,IC50,[2]; [3],30 nM
same,GR50 ratio,[2],33
same,"herbicidal activity after AAD1 (v1) treatment, Arabidopsis plate assay",[2],effectively degraded
same,% Injury Ave,"[1]; AAD1 v3, 12.5 g ae/ha",5.0%
same,% Injury Range,"[1]; AAD1 v3, 12.5 g ae/ha",0-20%
same,individuals with 20-40% injury,"[1]; AAD1 v3, 12.5 g ae/ha",1
same,individuals with <20% injury,"[1]; AAD1 v3, 12.5 g ae/ha",7
same,individuals with >40% injury,"[1]; AAD1 v3, 12.5 g ae/ha",0
same,% Injury Ave,"[1]; AAD1 v3, 50 g ae/ha",3.1%
same,% Injury Range,"[1]; AAD1 v3, 50 g ae/ha",0-25%
same,individuals with 20-40% injury,"[1]; AAD1 v3, 50 g ae/ha",1
same,individuals with <20% injury,"[1]; AAD1 v3, 50 g ae/ha",7
same,individuals with >40% injury,"[1]; AAD1 v3, 50 g ae/ha",0
same,% Injury Ave,"[1]; AAD1 v3, 200 g ae/ha",40.0%
same,% Injury Range,"[1]; AAD1 v3, 200 g ae/ha",0-100%
same,individuals with 20-40% injury,"[1]; AAD1 v3, 200 g ae/ha",1
same,individuals with <20% injury,"[1]; AAD1 v3, 200 g ae/ha",4
same,individuals with >40% injury,"[1]; AAD1 v3, 200 g ae/ha",3
same,% Injury Ave,"[1]; AAD1 v3, 800 g ae/ha",51.9%
same,% Injury Range,"[1]; AAD1 v3, 800 g ae/ha",20-100%
same,individuals with 20-40% injury,"[1]; AAD1 v3, 800 g ae/ha",5
same,individuals with <20% injury,"[1]; AAD1 v3, 800 g ae/ha",0
same,individuals with >40% injury,"[1]; AAD1 v3, 800 g ae/ha",3
Nc1c(Cl)c(F)nc(OCC(=O)O)c1Cl [Fluroxypyr],IC50,[2]; [4],1820 nM
same,IC50,"[2]; Arabidopsis thaliana, root length, 7 days, read-out: GR50, Chemical alone",2200 nM
same,IC50,[2]; [3],2250 nM
same,GR50 ratio,[2],<1
same,resistance/tolerance in AAD1 (v3)-transformed T1 Arabidopsis,[1],No resistance was observed
"O=C(O)COc1ccc(Cl)cc1Cl [2,4-D, 2,4-dichlorophenoxyacetic acid]",IC50,[2]; [4],267 nM
same,IC50,"[2]; Arabidopsis thaliana, read-out: GR50, Chemical alone",22 nM
same,IC50,"[2]; Escherichia coli, in Arabidopsis thaliana, read-out: GR50, Chemical + Blank Vector",17 nM
same,"herbicidal activity after AAD1 (v1) treatment, Arabidopsis plate assay",[2],almost complete loss
same,injury of some AAD1 (v3) T1 individuals,"[1]; 3,200 g ae/ha",little or no injury
same,T1 plants uninjured,"[1]; AAD1 (v3), 200 g ae/ha",> 73%
same,% Injury Ave,[1]; [5],24.3%
same,individuals with 20-40% injury,[1]; [5],1
same,individuals with <20% injury,[1]; [5],10
same,individuals with >40% injury,[1]; [5],5
same,% Injury Ave,[1]; [6],14%
same,individuals with 20-40% injury,[1]; [6],4
same,individuals with <20% injury,[1]; [6],11
same,individuals with >40% injury,[1]; [6],1
same,% Injury Ave,[1]; [7],14.7%
same,individuals with 20-40% injury,[1]; [7],4
same,individuals with <20% injury,[1]; [7],11
same,individuals with >40% injury,[1]; [7],1

# From patent US10450549B2, “Aryloxyphenoxypropionate tolerance in turfrgass species and use of AAD1 as a selectable marker” (Dow AgroSciences, LLC, priority 2004, dated 2019)
